From patent US6727237B2, “Inhibitors of bacterial NAD synthetase” (priority 1998, dated 2004)

What was measured:
[1] = system: Staphylococcus epidermitis; assay: Bacterial growth inhibition screen in LB media (absorbance 595 nm), percent inhibition; conditions: for % Inhibition: S. epidermitis
[2] = target: T1, bacterial NAD synthetase enzyme (Bacillus subtilis, UniProt P08164); assay: biochemical; format: biochemical; conditions: for IC50: lead compounds (Table 318A), read-out: IC 50
T1 sequence (P08164 2-272 limits assumed): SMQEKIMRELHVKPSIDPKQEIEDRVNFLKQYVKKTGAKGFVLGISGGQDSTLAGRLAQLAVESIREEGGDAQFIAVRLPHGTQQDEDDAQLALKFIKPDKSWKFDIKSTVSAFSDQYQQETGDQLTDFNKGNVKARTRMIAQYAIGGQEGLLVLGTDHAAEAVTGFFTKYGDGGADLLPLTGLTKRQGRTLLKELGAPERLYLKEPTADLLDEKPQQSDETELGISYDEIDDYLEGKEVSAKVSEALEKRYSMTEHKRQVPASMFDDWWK

[3] = compound at 0.2 mM (Table 312A)

| Compound | % Inhibition ([1]; concentration screened 100 uM) [%] | % Inhibition [2, 3] [%] | % Inhibition ([1]; concentration screened 10 uM) [%] | further results |
| --- | --- | --- | --- | --- |
| O=C(O)c1ccc2[nH]c(CCCCCCCC[n+]3ccc4ccccc4c3)cc2c1 [Compound 605] | 44.29 | 68.65 | – | – |
| CN(C)c1ccc(C(=O)OCCCCCCCCc2cc3cc(C(F)(F)F)ccc3[nH]2)cc1 [Compound 611] | 9.67 | 15.13 | – | – |
| O=C(OCCCCCCCCc1cc2cc(C(F)(F)F)ccc2[nH]1)c1ccccc1-c1ccccc1 [Compound 614] | 20.35 | 8.32 | – | – |
| CN(C)c1cccc(C(=O)OCCCCCCCCc2cc3cc(Oc4ccccc4)ccc3[nH]2)c1 [Compound 617] | 19.54 | 2.02 | – | – |
| CN(C)c1ccc(C(=O)OCCCCCCCCc2cc3cc(Oc4ccccc4)ccc3[nH]2)cc1 [Compound 620] | 12.69 | 19.03 | – | – |
| CC(C)c1ccc2[nH]c(CCCCOC(=O)c3ccc(N(C)C)cc3)cc2c1 [Compound 627] | 20.10 | 11.19 | – | – |
| CC(C)c1ccc2[nH]c(CCCCOC(=O)c3ccccc3-c3ccccc3)cc2c1 [Compound 630] | 13.69 | 10.72 | – | – |
| CC(=O)c1ccc2[nH]c(CCCCOC(=O)c3ccc(N(C)C)cc3)cc2c1 [Compound 636] | 6.72 | 17.36 | – | – |
| CN(C)c1ccc(C(=O)OCCCCc2cc3cc(C(=O)c4ccccc4)ccc3[nH]2)cc1 [Compound 645] | 9.23 | 4.31 | – | – |
| O=C(c1ccccc1)c1ccc2[nH]c(CCCCOC(=O)c3ccccc3-c3ccccc3)cc2c1 [Compound 648] | 14.57 | 5.82 | – | – |
| O=C(OCCCCCCCCc1cc2cc(C(F)(F)F)ccc2[nH]1)C(c1ccccc1)c1ccccc1 [Compound 653] | 8.42 | 20.59 | – | – |
| O=C(OCCCCc1cc2cc(C(F)(F)F)ccc2[nH]1)c1cccnc1 [Compound 654] | – | 2.11 | 25.20 | – |
| O=C(OCCCCCCCCc1cc2cc(Oc3ccccc3)ccc2[nH]1)C(c1ccccc1)c1ccccc1 [Compound 659] | 20.41 | 25.47 | – | – |
| O=C(OCCCCCCCCc1cc2cc(Oc3ccccc3)ccc2[nH]1)c1cccnc1 [Compound 662] | – | 8.39 | 3.27 | – |
| CC(C)c1ccc2[nH]c(CCCCOC(=O)C(c3ccccc3)c3ccccc3)cc2c1 [Compound 663] | 44.28 | 15.43 | – | – |
| CC(=O)c1ccc2[nH]c(CCCCCCCOC(=O)C(c3ccccc3)c3ccccc3)cc2c1 [Compound 670] | – | – | 5.59 | % Inhibition ([2]; compound at 0.1 mM (Table 314)): 4.65% |
| CC(=O)c1ccc2[nH]c(CCCCOC(=O)c3cccnc3)cc2c1 [Compound 672] | – | 2.63 | 1.57 | – |
| CC(=O)c1ccc2[nH]c(CCCCCCCOC(=O)c3cccnc3)cc2c1 [Compound 673] | – | 1.81 | 1.50 | – |
| O=C(c1ccccc1)c1ccc2[nH]c(CCCCCCCOC(=O)C(c3ccccc3)c3ccccc3)cc2c1 [Compound 676] | – | – | 5.52 | % Inhibition ([2]; compound at 0.1 mM (Table 314)): 1.46% |
| O=C(OCCCCCCCc1cc2cc(Oc3ccccc3)ccc2[nH]1)c1ccncc1 [Compound 700] | – | 2.54 | 3.61 | – |
| COc1ccc2c(ccn2CCCCOC(=O)Cc2ccc([N+](C)(C)C)cc2)c1 [Compound 740] | – | 7.23 | 5.17 | – |
| COc1ccc2c(ccn2CCCCCCOC(=O)Cc2ccc([N+](C)(C)C)cc2)c1 [Compound 742] | – | 28.20 | 2.13 | – |
| C[n+]1cccc(C(=O)OCCCCn2ccc3cc(OCc4ccccc4)ccc32)c1 [Compound 765] | – | – | – | inhibition of growth at 10 µM ([1]; Staphylococcus, read-out: % Inhibition, S. epidermitis, concentration screened 10 uM): 9.31%; inhibition at 100 µM [2]: 90%; IC50 [2]: 90 µM |
| CN(C)c1ccc(CC(=O)OCCCCCCn2ccc3cc([N+](=O)[O-])ccc32)cc1 [Compound 850] | – | – | 56.50 | % Inhibition ([2]; compound at 0.1 mM (Table 314)): 87.46%; IC50 [2]: 80 µM |
